Laboratory results taken from patent US10245275B2 (ViiV HEALTHCARE UK (NO.4) LIMITED, priority 2014, dated 2019).
Like-named read-outs stand apart in the source and are kept apart here.

Experiments:
[1] = system: WT (wild-type HIV virus; recombinant NL4-3 virus); experiment: microbe, parasite or virus in culture; format: cell-based, HIV-1
How it was run: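 MT-2 cells infected 4-5 days with NL4-3 carrying Renilla luciferase in place of part of nef (Gag P373S), virus made by 293T transfection, with serial inhibitor dilutions. Antiviral activity read as luciferase activity by a modified dual-luciferase read-out.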

[2] = system: HIV-1 NL4-3 gag A364V virus; experiment: microbe, parasite or virus in culture; format: cell-based
How it was run: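 Recombinant NL4-3 reporter virus with Renilla luciferase replacing part of nef, made by transfection of 293T cells. MT-2 cells infected for 4-5 days with serial inhibitor dilutions; antiviral activity quantified by luciferase activity.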

[3] = Human immunodeficiency virus 1, NL43, MT2, read-out: WT (EC50, uM), Table 1 regular screen, class symbol
[4] = Human immunodeficiency virus 1, NL43, MT2, read-out: A364V (EC50, uM), Table 1 regular screen, class symbol
[5] = Human immunodeficiency virus 1, NL43, MT2, read-out: WT (EC50, uM), Table 1 regular screen, MT-2 cells, luciferase readout
[6] = Human immunodeficiency virus 1, NL43, MT2, read-out: A364V (EC50, uM), Table 1 regular screen, MT-2 cells, luciferase readout

| Compound | EC50 [1, 3] | EC50 [2, 4] | EC50 [1, 5] | EC50 [2, 6] | also measured |
| --- | --- | --- | --- | --- | --- |
| C=C(C)[C@@H]1CC[C@]2(CNCCCN3CCS(=O)(=O)CC3)CC[C@]3(C)[C@H](CC[C@@H]4[C@@]5(C)CC=C(C6=CC[C@@](CF)(C(=O)O)CC6)C(C)(C)[C@@H]5CC[C@]43C)[C@@H]12 [Example 11, (R)-4-((1R,3aS,5aR,5bR,7aR,11aS,11bR,13aR,13bR)-3a-(((3-(1,1-dioxidothiomorpholino)propyl)amino)methyl)-5a,5b, 8,8,11a-pentamethyl-1-(prop-1-en-2-yl)-2,3,3a,4,5,5a,5b,6,7,7a,8,11,11a,11b,12,13,13a,13b-octadecahydro-1H-cyclopenta[a]chrysen-9-yl)-1-(fluoromethyl)cyclohex-3-enecarboxylic acid] | < 0.05 µM | < 0.05 µM | – | – | – |
| C=C(C)[C@@H]1CC[C@]2(CN(CCCN3CCS(=O)(=O)CC3)C(C)=O)CC[C@]3(C)[C@H](CC[C@@H]4[C@@]5(C)CC=C(C6=CC[C@@](CF)(C(=O)O)CC6)C(C)(C)[C@@H]5CC[C@]43C)[C@@H]12 [Example 12, (R)-4-((1R,3aS,5aR,5bR,7aR,11aS,11bR,13aR,13bR)-3a-((N-(3-(1,1-dioxidothiomorpholino)propyl)acetamido)methyl)-5a,5b,8,8,11a-pentamethyl-1-(prop-1-en-2-yl)-2,3,3a,4,5,5a,5b,6,7,7a,8,11,11a,11b,12,13,13a,13b-octadecahydro-1H-cyclopenta[a]chrysen-9-yl)-1-(fluoromethyl)cyclohex-3-enecarboxylic acid] | < 0.05 µM | > 0.05 µM | – | – | – |
| C=C(C)[C@@H]1CC[C@]2(NCCN3CCC(C(=O)OCC)(C(=O)OCC)CC3)CC[C@]3(C)[C@H](CC[C@@H]4[C@@]5(C)CC=C(C6=CC[C@@](CF)(C(=O)O)CC6)C(C)(C)[C@@H]5CC[C@]43C)[C@@H]12 [Example 13, (R)-4-((1R,3aS,5aR,5bR,7aR,11aS,11bR,13aR,13bR)-3a-((2-(4,4-bis(ethoxycarbonyl)piperidin-1-yl)ethyl)amino)-5a,5b, 8,8,11a-pentamethyl-1-(prop-1-en-2-yl)-2,3,3a,4,5,5a,5b,6,7,7a,8,11,11a,11b,12,13,13a,13b-octadecahydro-1H-cyclopenta[a]chrysen-9-yl)-1-(fluoromethyl)cyclohex-3-enecarboxylic acid] | – | – | 0.0188 µM | 0.196 µM | – |
| C=C(C)[C@@H]1CC[C@]2(NCCN3CCC(C(=O)O)(C(=O)O)CC3)CC[C@]3(C)[C@H](CC[C@@H]4[C@@]5(C)CC=C(C6=CC[C@@](CF)(C(=O)O)CC6)C(C)(C)[C@@H]5CC[C@]43C)[C@@H]12 [Example 16, 1-(2-(((1R,3aS,5aR,5bR,7aR,11aS,11bR,13aR,13bR)-9-((R)-4-carboxy-4-(fluoromethyl)cyclohex-1-en-1-yl)-5a,5b,8,8,11a-pentamethyl-1-(prop-1-en-2-yl)-2,3,3a,4,5,5a,5b,6,7,7a,8,11,11a,11b,12,13,13a,13b-octadecahydro-1H-cyclopenta[a]chrysen-3a-yl)amino)ethyl)piperidine-4,4-dicarboxylic acid] | – | – | 0.43 µM | 3 µM | – |
| C=C(C)[C@@H]1CC[C@]2(NCCN3CCC(C(=O)O)(C(=O)OCC)CC3)CC[C@]3(C)[C@H](CC[C@@H]4[C@@]5(C)CC=C(C6=CC[C@@](CF)(C(=O)O)CC6)C(C)(C)[C@@H]5CC[C@]43C)[C@@H]12 [Example 17] | – | – | 0.0194 µM | 3 µM | – |
| C=C(C)[C@@H]1CC[C@]2(NCCN3CCSCC3C(=O)O)CC[C@]3(C)[C@H](CC[C@@H]4[C@@]5(C)CC=C(C6=CC[C@@](CF)(C(=O)O)CC6)C(C)(C)[C@@H]5CC[C@]43C)[C@@H]12 (stereo partly drawn) [Example 18, 4-(2-(((1R,3aS,5aR,5bR,7aR,11aS,11bR,13aR,13bR)-9-((R)-4-carboxy-4-(fluoromethyl)cyclohex-1-en-1-yl)-5a,5b,8,8,11a-pentamethyl-1-(prop-1-en-2-yl)-2,3,3a,4,5,5a,5b,6,7,7a,8,11,11a,11b,12,13,13a,13b-octadecahydro-1H-cyclopenta[a]chrysen-3a-yl)amino)ethyl)thiomorpholine-3-carboxylic acid] | – | – | 0.0243 µM | 3 µM | – |
| C=C(C)[C@@H]1CC[C@]2(NCCO)CC[C@]3(C)[C@H](CC[C@@H]4[C@@]5(C)CC=C(C6=CC[C@@](CF)(C(=O)O)CC6)C(C)(C)[C@@H]5CC[C@]43C)[C@@H]12 [Example 19, (R)-1-(fluoromethyl)-4-((1R,3aS,5aR,5bR,7aR,11aS,11bR,13aR,13bR)-3a-((2-hydroxyethyl)amino)-5a,5b,8,8,11a-pentamethyl-1-(prop-1-en-2-yl)-2,3,3a,4,5,5a,5b,6,7,7a,8,11,11a,11b,12,13,13a,13b-octadecahydro-1H-cyclopenta[a]chrysen-9-yl)cyclohex-3-enecarboxylic acid] | – | – | – | – | EC50 ([1]; Human immunodeficiency virus 1, NL43, MT2, read-out: WT (EC50, uM)): < 0.05 µM; EC50 ([2]; Human immunodeficiency virus 1, NL43, MT2, read-out: A364V (EC50, uM)): > 0.05 µM |
| C=C(C)[C@@H]1CC[C@]2(NCCN3CCCC3=O)CC[C@]3(C)[C@H](CC[C@@H]4[C@@]5(C)CC=C(C6=CC[C@](CF)(C(=O)O)CC6)C(C)(C)[C@@H]5CC[C@]43C)[C@@H]12 [Example 20, (S)-1-(fluoromethyl)-4-((1R,3aS,5aR,5bR,7aR,11aS,11bR,13aR,13bR)-5a,5b, 8,8,11a-pentamethyl-3a-((2-(2-oxopyrrolidin-1-yl)ethyl)amino)-1-(prop-1-en-2-yl)-2,3,3a,4,5,5a,5b,6,7,7a,8,11,11a,11b,12,13,13a,13b-octadecahydro-1H-cyclopenta[a]chrysen-9-yl)cyclohex-3-enecarboxylic acid] | – | – | 0.00253 µM | 0.129 µM | – |
| C=C(C)[C@@H]1CC[C@]2(NCCCN3CCCC3=O)CC[C@]3(C)[C@H](CC[C@@H]4[C@@]5(C)CC=C(C6=CC[C@](CF)(C(=O)O)CC6)C(C)(C)[C@@H]5CC[C@]43C)[C@@H]12 [Example 21, (S)-1-(fluoromethyl)-4-((1R,3aS,5aR,5bR,7aR,11aS,11bR,13aR,13bR)-5a,5b,8,8,11a-pentamethyl-3a-((3-(2-oxopyrrolidin-1-yl)propyl)amino)-1-(prop-1-en-2-yl)-2,3,3a,4,5,5a,5b,6,7,7a,8,11,11a,11b,12,13,13a,13b-octadecahydro-1H-cyclopenta[a]chrysen-9-yl)cyclohex-3-enecarboxylic acid] | < 0.05 µM | > 0.05 µM | – | – | – |
| CC(C)[C@@H]1CC[C@]2(NCCN3CCS(=O)(=O)CC3)CC[C@]3(C)[C@H](CC[C@@H]4[C@@]5(C)CC=C(C6=CC[C@@](CF)(C(=O)O)CC6)C(C)(C)[C@@H]5CC[C@]43C)[C@@H]12 [Example 22, (R)-4-((1S,3aS,5aR,5bR,7aR,11aS,11bR,13aR,13bR)-3a-((2-(1,1-dioxidothiomorpholino)ethyl)amino)-1-isopropyl-5a,5b, 8,8,11a-pentamethyl-2,3,3a,4,5,5a,5b,6,7,7a,8,11,11a,11b,12,13,13a,13b-octadecahydro-1H-cyclopenta[a]chrysen-9-yl)-1-(fluoromethyl)cyclohex-3-enecarboxylic acid] | – | – | 0.00134 µM | 0.0513 µM | – |
